Several values for one entry are separate records, joined by “and”; a condition that tells them apart may be missing. Identical values can stand only once. Inconclusive results and toxic doses are left out.

The experiment has as its system BDF1 mice, B16 melanoma ip, median survival T/C. The experiment in a line: NCI In Vivo Anticancer Drug Screen. Data for tumor model B16 Melanoma (intraperitoneal) in B6D2F1 (BDF1) mice. The following applies: endpoint: median survival time, higher = longer survival. Summed up: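 Read-out: survival or tumor size, given as treated/control ratio. Controls received vehicle only; animals bore transplantable tumors.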

Where [1] appears, read: dose: 100.0 mg/kg/injection, schedule: Q01DX009 (ip), vehicle: saline.
Where [2] appears, read: dose: 200.0 mg/kg/injection, schedule: Q01DX009 (ip), vehicle: saline.
[3] abbreviates: dose: 12.5 mg/kg/injection, schedule: Q01DX009 (ip), vehicle: Klucel (hydroxypropylcellulose) (HPC).
Setting [4] is: dose: 25.0 mg/kg/injection, schedule: Q01DX009 (ip), vehicle: Klucel (hydroxypropylcellulose) (HPC).
[5] abbreviates: dose: 50.0 mg/kg/injection, schedule: Q01DX009 (ip), vehicle: Klucel (hydroxypropylcellulose) (HPC).
[6] abbreviates: dose: 50.0 mg/kg/injection, schedule: Q01DX009 (ip), vehicle: saline with Tween-80.
The mark [7] stands for this setting: dose: 100.0 mg/kg/injection, schedule: Q01DX009 (ip), vehicle: Klucel (hydroxypropylcellulose) (HPC).
The mark [8] stands for this setting: dose: 100.0 mg/kg/injection, schedule: Q01DX009 (ip), vehicle: saline with Tween-80.
The mark [9] stands for this setting: dose: 200.0 mg/kg/injection, schedule: Q01DX009 (ip), vehicle: saline with Tween-80.
Setting [10] is: dose: 12.5 mg/kg/injection, schedule: Q01DX009 (ip), vehicle: saline with Tween-80.
[11] abbreviates: dose: 25.0 mg/kg/injection, schedule: Q01DX009 (ip), vehicle: saline with Tween-80.
Where [12] appears, read: dose: 200.0 mg/kg/injection, schedule: Q01DX009 (ip), vehicle: Klucel (hydroxypropylcellulose) (HPC).
Setting [13] is: dose: 12.5 mg/kg/injection, schedule: Q01DX009 (ip), vehicle: saline.
[14] abbreviates: dose: 25.0 mg/kg/injection, schedule: Q01DX009 (ip), vehicle: saline.
The mark [15] stands for this setting: dose: 3.12 mg/kg/injection, schedule: Q01DX009 (ip), vehicle: saline.
[16] abbreviates: dose: 6.25 mg/kg/injection, schedule: Q01DX009 (ip), vehicle: saline.
Where [17] appears, read: dose: 50.0 mg/kg/injection, schedule: Q01DX009 (ip), vehicle: saline.

Consider `COC1=C2CC(C)CC(OC)C(O)C(C)/C=C(\C)C(OC(N)=O)C(OC)/C=C\C=C(/C)C(=O)NC(=C(/C=N/N3CCOCC3)C1=O)C2=O` (configuration not stated), for which the T/C is 106 % of control (dose: 12.5 mg/kg/injection, schedule: Q01DX005 (ip), vehicle: other); 97 % of control (dose: 25.0 mg/kg/injection, schedule: Q01DX005 (ip), vehicle: other); 106 % of control (dose: 100.0 mg/kg/injection, schedule: Q01DX005 (ip), vehicle: other); 89 % of control (dose: 200.0 mg/kg/injection, schedule: Q01DX005 (ip), vehicle: other).
Regarding `CCOC(=O)c1ccc(NC(=O)Nc2nncs2)cc1`, the T/C was 93 % of control (dose: 6.25 mg/kg/injection, schedule: Q01DX009 (ip), vehicle: distilled water + Tween-80); 112 % of control (dose: 12.5 mg/kg/injection, schedule: Q01DX009 (ip), vehicle: distilled water + Tween-80); 95 % of control (dose: 25.0 mg/kg/injection, schedule: Q01DX009 (ip), vehicle: distilled water + Tween-80); 98 % of control (dose: 50.0 mg/kg/injection, schedule: Q01DX009 (ip), vehicle: distilled water + Tween-80).
As to `CCCCCCCCCCCCCCCCCCNC(=S)N/N=C/c1ccc(Cl)cc1Cl`, the T/C is, setting by setting: under setting [1], 87 % of control; under setting [2], 95 % of control.
Take `BrCc1ccc2c3c(ccc(CBr)c13)CC2`: the T/C was 103 % of control under setting [3]; 98 % of control under setting [4]; 96 % of control under setting [5]; 112 % of control under setting [6]; 100 % of control under setting [7]; 122 % of control under setting [8]. In addition, the T/C runs as follows: (dose: 100.0 mg/kg/injection, schedule: Q04DX003 (ip), vehicle: saline with Tween-80) 107 % of control; under setting [9], 95 % of control; (dose: 200.0 mg/kg/injection, schedule: Q04DX003 (ip), vehicle: saline with Tween-80) 112 % of control; (dose: 400.0 mg/kg/injection, schedule: Q04DX003 (ip), vehicle: saline with Tween-80) 105 % of control.
For `COC1=C(OC)C(=O)C(C/C=C(\C)CC/C=C(\C)CC/C=C(\C)CC/C=C(\C)CC/C=C(\C)CC/C=C(\C)CC/C=C(\C)CC/C=C(\C)CCC=C(C)C)=C(C)C1=O`, the T/C was 81 % of control (dose: 10.0 mg/kg/injection, schedule: Q01DX025 (ip), vehicle: saline with Tween-80); 102 % of control (dose: 20.0 mg/kg/injection, schedule: Q01DX025 (ip), vehicle: saline with Tween-80); 100 % of control (dose: 40.0 mg/kg/injection, schedule: Q01DX025 (ip), vehicle: saline with Tween-80).
For `CCCOCC(O)CO` (configuration not stated), the T/C was 118 % of control under setting [1]; 118 % of control under setting [2]; 112 % of control (dose: 400.0 mg/kg/injection, schedule: Q01DX009 (ip), vehicle: saline).
For `Cc1ccc(C(C)(C)Cl)cc1O`, the T/C reads like this: under setting [10], 117 % of control; under setting [11], 112 % of control; under setting [6], 96 % of control.
With `CCC(C)Nc1ccc(N)cc1` (configuration not stated), the T/C is, setting by setting: (dose: 0.09 mg/kg/injection, schedule: Q01DX009 (ip), vehicle: Klucel (hydroxypropylcellulose) (HPC)) 97 % of control; (dose: 0.18 mg/kg/injection, schedule: Q01DX009 (ip), vehicle: Klucel (hydroxypropylcellulose) (HPC)) 99 % of control; (dose: 0.37 mg/kg/injection, schedule: Q01DX009 (ip), vehicle: Klucel (hydroxypropylcellulose) (HPC)) 89 % of control; (dose: 0.75 mg/kg/injection, schedule: Q01DX009 (ip), vehicle: Klucel (hydroxypropylcellulose) (HPC)) 99 % of control.
Consider `COc1cc2cccc(OC)c(=O)c2c(O)c1OC`, for which the T/C under setting [4] is 97 % of control, the T/C under setting [5] is 105 % of control and the T/C under setting [7] is 97 % of control.
Turning to `O=C(COc1ccc(Cl)cc1Cl)Nc1ccc(F)cc1`, the T/C is 110 % of control under setting [11], 91 % of control under setting [6] and 86 % of control under setting [8].
Turning to `O=C(O)CCC(NC(=O)OCc1ccccc1)C(=O)OCc1ccccc1` (configuration not stated), the T/C reads like this: under setting [5], 86 % of control; under setting [7], 86 % of control; under setting [12], 96 % of control.
As for `CNc1n[n+](-c2ccccc2)no1`, the T/C under setting [13] is 119 % of control and the T/C under setting [14] is 124 % of control.
On to `CC1NCCOC1c1ccccc1` (configuration not stated), for which the T/C under setting [15] was 100 % of control; the T/C under setting [16] was 97 % of control; the T/C under setting [13] was 104 % of control; the T/C under setting [14] is 90 % of control and 124 % of control; the T/C under setting [17] was 90 % of control and 113 % of control; the T/C under setting [1] was 111 % of control.
With `O=P(O)(O)OCC(O)CCl` (configuration not stated), the T/C by setting is: under setting [17], 110 % of control; under setting [1], 103 % of control; under setting [2], 103 % of control.
As for `CCOC(=O)C(Cc1ccc(Cl)c(Cl)c1)(Cc1ccc(Cl)c(Cl)c1)C(=O)OCC`, the T/C is 99 % of control under setting [10], 97 % of control under setting [11] and 94 % of control under setting [6].
With `CC1=CC(=O)[C@@H](O)[C@]2(C)[C@H]3[C@@]4(O)OC[C@]35[C@H]([C@@H](C)[C@H]4O)[C@@H](OC(=O)c3ccccc3)C(=O)O[C@@H]5C[C@@H]12`, the T/C by setting is: (dose: 0.25 mg/kg/injection, schedule: Q01DX009 (ip), vehicle: saline with Tween-80) 118 % of control; (dose: 2.0 mg/kg/injection, schedule: Q01DX009 (ip), vehicle: saline with Tween-80) 171 % of control.
For the compound `Clc1cc(CBr)c(Cl)c(Cl)c1CBr`, the T/C by setting is: (dose: 1.56 mg/kg/injection, schedule: Q01DX009 (ip), vehicle: Klucel (hydroxypropylcellulose) (HPC)) 94 % of control; (dose: 3.12 mg/kg/injection, schedule: Q01DX009 (ip), vehicle: Klucel (hydroxypropylcellulose) (HPC)) 88 % of control; (dose: 6.25 mg/kg/injection, schedule: Q01DX009 (ip), vehicle: Klucel (hydroxypropylcellulose) (HPC)) 94 % of control; under setting [3], 92 % of control.
With `CCCCCCCCCC(O)CC` (configuration not stated), the T/C was 98 % of control under setting [7]; 96 % of control under setting [12]; 100 % of control (dose: 400.0 mg/kg/injection, schedule: Q01DX009 (ip), vehicle: Klucel (hydroxypropylcellulose) (HPC)).
On to `CC(=O)CCc1ccc(O)cc1`, for which the T/C reads like this: under setting [8], 90 % of control; under setting [9], 100 % of control; (dose: 400.0 mg/kg/injection, schedule: Q01DX009 (ip), vehicle: saline with Tween-80) 92 % of control.
Regarding `CC(CN=Cc1ccccc1[O-])N=Cc1ccccc1[O-].[O]=[V]` (configuration not stated), the T/C by setting is: (dose: 2.5 mg/kg/injection, schedule: Q01DX009 (ip), vehicle: saline with Tween-80) 90 % of control; (dose: 5.0 mg/kg/injection, schedule: Q01DX009 (ip), vehicle: saline with Tween-80) 90 % of control; (dose: 5.0 mg/kg/injection, schedule: Q04DX003 (ip), vehicle: saline with Tween-80) 97 % of control; (dose: 10.0 mg/kg/injection, schedule: Q04DX003 (ip), vehicle: saline with Tween-80) 92 % of control.
Take `COc1cc(C(=O)OCCCN2CCOCC2)cc(OC)c1OC`: the T/C is 105 % of control (dose: 0.78 mg/kg/injection, schedule: Q01DX009 (ip), vehicle: saline); 110 % of control (dose: 1.56 mg/kg/injection, schedule: Q01DX009 (ip), vehicle: saline); 110 % of control under setting [15]; 105 % of control under setting [16]; 110 % of control under setting [13]; 89 % of control under setting [2].
Take `O=C(O)C1c2ccccc2Cc2ccccc21`: the T/C is, setting by setting: (dose: 37.5 mg/kg/injection, schedule: Q04DX003 (ip), vehicle: Klucel (hydroxypropylcellulose) (HPC)) 122 % of control; under setting [5], 97 % of control; (dose: 75.0 mg/kg/injection, schedule: Q04DX003 (ip), vehicle: Klucel (hydroxypropylcellulose) (HPC)) 119 % of control; under setting [7], 100 % of control; (dose: 150.0 mg/kg/injection, schedule: Q04DX003 (ip), vehicle: Klucel (hydroxypropylcellulose) (HPC)) 119 % of control; under setting [12], 105 % of control.
As for `Cc1ccc(Cl)cc1NC(=O)c1ccc([N+](=O)[O-])cc1`, the T/C under setting [11] is 112 % of control, the T/C under setting [6] is 110 % of control and the T/C under setting [8] was 96 % of control.
